Assay results published in patent US4556517A, “Carbapenem derivatives” (Shionogi & Co., Ltd., priority 1981, dated 1985).
≈ marks a conversion by molar mass, not a printed value.

Columns and labels:
Enterobacter cloacae 233 = assay: Antibacterial Spectrum, agar dilution method; type: cell-based; conditions: inoculum 10^6 cells/ml, sensitivity disc agar, 37° C. overnight, read-out: Minimum Inhibitory Concentration
Protocol: (§1) Determined by agar dilution method;
(§2) Inoculum size is 10^6 cells/ml;
(§3) Cultivation in sensitivitydisc agar at 37° C. overnight.

[1] = test system: Streptococcus pneumoniae I; assay: Antibacterial Spectrum, agar dilution method; type: cell-based; conditions: inoculum 10^6 cells/ml, sensitivity disc agar, 37° C. overnight, read-out: Minimum Inhibitory Concentration
Protocol: as §1, §2, §3

[2] = test system: Escherichia coli NIHJ JC-2; assay: Antibacterial Spectrum, agar dilution method; type: cell-based; conditions: NIHJJC2, inoculum 10^6 cells/ml, sensitivity disc agar, 37° C. overnight, read-out: Minimum Inhibitory Concentration
Protocol: as §1, §2, §3

[3] = test system: Pseudomonas aeruginosa ATCC 25619; assay: Antibacterial Spectrum, agar dilution method; type: cell-based; conditions: ATCC25619, inoculum 10^6 cells/ml, sensitivity disc agar, 37° C. overnight, read-out: Minimum Inhibitory Concentration
Protocol: as §1, §2, §3

[4] = test system: Klebsiella pneumoniae SRL-1; assay: Antibacterial Spectrum, agar dilution method; type: cell-based; conditions: SRL1, inoculum 10^6 cells/ml, sensitivity disc agar, 37° C. overnight, read-out: Minimum Inhibitory Concentration
Protocol: as §1, §2, §3

[5] = test system: Staphylococcus aureus 209P JC-1; assay: Antibacterial Spectrum, agar dilution method; type: cell-based; conditions: inoculum 10^6 cells/ml, sensitivity disc agar, 37° C. overnight, read-out: Minimum Inhibitory Concentration
Protocol: as §1, §2, §3

Klebsiella sp. 363(R) = assay: Antibacterial Spectrum, agar dilution method; type: cell-based; conditions: inoculum 10^6 cells/ml, sensitivity disc agar, 37° C. overnight, read-out: Minimum Inhibitory Concentration
Protocol: as §1, §2, §3

Proteus mirabilis PR-4 = assay: Antibacterial Spectrum, agar dilution method; type: cell-based; conditions: PR4, inoculum 10^6 cells/ml, sensitivity disc agar, 37° C. overnight, read-out: Minimum Inhibitory Concentration
Protocol: as §1, §2, §3

[6] = biological target: β-lactamase of Enterobacter cloacae 92 (cephalosporinase type) (Enterobacter cloacae, UniProt P05364); assay: β-Lactamase inhibitory test, cephalosporinase-type; type: biochemical; conditions: 10 minutes preincubation, room temperature, minimum concentration to inhibit color change of indicator
β-lactamase of Enterobacter cloacae 92 (cephalosporinase type), sequence (P05364 21-381): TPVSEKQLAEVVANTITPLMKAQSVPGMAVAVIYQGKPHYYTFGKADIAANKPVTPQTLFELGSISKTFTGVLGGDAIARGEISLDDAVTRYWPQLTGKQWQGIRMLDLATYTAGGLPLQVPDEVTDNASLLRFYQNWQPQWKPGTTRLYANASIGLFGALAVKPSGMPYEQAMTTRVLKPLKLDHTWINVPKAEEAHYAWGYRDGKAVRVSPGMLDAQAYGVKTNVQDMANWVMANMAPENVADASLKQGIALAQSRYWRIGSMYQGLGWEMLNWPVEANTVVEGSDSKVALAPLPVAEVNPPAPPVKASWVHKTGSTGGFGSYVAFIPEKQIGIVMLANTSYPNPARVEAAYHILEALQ
Protocol: *1 producing lactamase of cephalosporinasetype
(§4) *3 The test compound was incubated with enzyme at room temperature for 10
(§5) minutes prior to adding an indicator and the minimum concentration to
(§6) inhibit color change was determined.

[7] = test system: β-lactamase of Klebsiella sp. 363 (penicillinase type); assay: β-Lactamase inhibitory test, penicillinase-type; type: biochemical; conditions: 10 minutes preincubation, room temperature, minimum concentration to inhibit color change of indicator
Protocol: *2 producing lactamase of penicillinasetype
as §4, §5, §6

SMILES	MIC (Enterobacter cloacae 233)	MIC [1]	MIC [2]	MIC [3]	MIC [4]	MIC [5]	MIC (Klebsiella sp. 363(R))	MIC (Proteus mirabilis PR-4)	Minimum Effective Concentration [6]	Minimum Effective Concentration [7]
CC(OS(=O)(=O)O)C1C(=O)N2C(C(=O)O)=C(SCC(=O)O)CC12 (stereo not drawn) [Deoxy PLM B, 3-Carboxymethylthio-6-(1-hydroxysulfonyloxyethyl)-7-oxo-1-azabicyclo[3.2.0]-hept-2-ene-2-carboxylic acid]	6.25 µg/mL (≈ 17 µM)	1.56 µg/mL (≈ 4.25 µM)	1.56 µg/mL (≈ 4.25 µM)	> 100 µg/mL	0.78 µg/mL (≈ 2.12 µM)	3.13 µg/mL (≈ 8.52 µM)	1.56 µg/mL (≈ 4.25 µM)	0.78 µg/mL (≈ 2.12 µM)	0.002 µg/mL	0.063 µg/mL
CC(OS(=O)(=O)O)C1C(=O)N2C(C(=O)O)=C(SC(O)O)CC12 (stereo not drawn) [Deoxy PLM C, 3-dihydroxymethylthio-6-(1-hydroxysulfonyloxyethyl)-7-oxo-1-azabicyclo[3.2.0]-hept-2-ene-2-carboxylic acid]	3.13 µg/mL (≈ 8.81 µM)	0.2 µg/mL (≈ 0.563 µM)	0.78 µg/mL (≈ 2.2 µM)	> 100 µg/mL	0.78 µg/mL (≈ 2.2 µM)	0.78 µg/mL (≈ 2.2 µM)	0.78 µg/mL (≈ 2.2 µM)	0.78 µg/mL (≈ 2.2 µM)	0.002 µg/mL	0.125 µg/mL
CC(OS(=O)(=O)O)C1C(=O)N2C(C(=O)O)=C([S+]([O-])CO)CC12 (stereo not drawn) [Dihydro PLM C, 3-hydroxymethylsulfinyl-6-(1-hydroxysulfonyloxyethyl)-7-oxo-1-azabicyclo[3.2.0]-hept-2-ene-2-carboxylic acid]	> 100 µg/mL	3.1 µg/mL (≈ 8.72 µM)	12.5 µg/mL (≈ 35.2 µM)	> 100 µg/mL	25 µg/mL (≈ 70.4 µM)	12.5 µg/mL (≈ 35.2 µM)	12.5 µg/mL (≈ 35.2 µM)	25 µg/mL (≈ 70.4 µM)	0.008 µg/mL	0.004 µg/mL
